Laboratory results reported in patent US10413559B2, “Method for treating demyelinating disease” (OCHANOMIZU UNIVERSITY, priority 2013, dated 2019).

Legend:
[1] = system: demyelination model mice (0.2% cuprizone); test: Myelin level by Black Gold staining in cuprizone demyelination model mice (Example 1); type: in vivo, C57BL/6 mice; conditions: intraperitoneal 40 μg/200 μl saline/day for 5 weeks, FIG. 2
Experimental: 10-week-old male C57BL/6 mice were fed with a mash feed containing 0.2% cuprizone for five weeks until the most significant demyelination occurred, so as to produce demyelination model mice. cPA and carba-cPA (cPA) powders were each dissolved in a saline, and the obtained solutions were each administered intraperitoneally at a dose of 40 μg/200 μl saline/day to the mice every day for 5 weeks. On the other hand, to negative control mice, a saline (200 μl/day) was intraperitoneally administered in the same manner as described above. The mice, to which the test compound had been administered, were subjected to perfusion fixation with 4% paraformaldehyde, and sections to be used for frozen tissue staining (30 μm) were then prepared in a cryostat (FIG. 1). The level of myelin in each mouse was measured by Black Gold staining, and the demyelination level was then measured based on the stained level (FIG. 2).

[2] = system: GFAP, Iba1, PDGFRa, P2rx7, Nlrp3 gene expression in corpus callosum; test: Genetic analysis using Q-PCR of corpus callosum tissues; type: in vivo, C57BL/6j mice; conditions: cuprizone mice; intraperitoneal 1.6 mg/kg/day for 5 weeks; FIG. 6-8
Excerpt: 10-week-old male C57BL/6j mice (Tokyo Laboratory Animals Science Co., Ltd., Tokyo, Japan) were fed by the discretionary intake of a mash feed (CLEA Japan, Inc.) that contained 0.2% cuprizone (biscyclohexanone oxalyl hydrazone; Merck KGaA, Darmstadt, Germany) for 5 weeks until demyelination progressed most, so as to produce demyelination model mice involving demyelination caused by oligodendrocyte-specific cell death.
To obtain mouse corpus callosum tissues to be used for genetic analysis, mouse brain was removed, and the corpus callosum tissues were then collected from the brain. […]
mRNA was extracted from the frozen corpus callosum tissues using ISOGEN (Nippon Gene Co., Ltd., Tokyo, Japan), was then dissolved in RNase free molecular grade water (Takara Bio Inc., Shiga, Japan), and was then preserved at −80° C. […] Gene expression was detected using 7900 Sequence Detection System (Applied Biosystems). […] The gene expression level was calculated by a ΔΔCT method. Data were analyzed by a relative quantification method. A relative change in the gene expression was analyzed, while setting the gene expression level in a control mouse at 100%.

CCCCCCCCCCCCCCCC(=O)OCC1COP(=O)(O)O1 (centres unmarked) [cPA]
level of myelin (Black Gold staining) versus control mouse [1]: higher than the level of myelin in a control mouse
nerve inflammation (gene expression by Q-PCR) [2]: nerve inflammation is suppressed
